Reference: PMC9190144, “Phytochemistry, anti-diabetic and antioxidant potentials of Allium consanguineum Kunth” (BMC Complementary Medicine and Therapies, 2022)
“And” between values parts separate entries of the source, which are not always exact repeats. Identical values can stand only once.

Key:
α-amylase = experiment: In-vitro α-amylase inhibition assay; assay type: biochemical; conditions: for Percent Inhibition (mean ± SEM): crude extract/solvent fractions series; for Alpha amylase Percent Inhibition (mean ± SEM): semi-purified fractions/isolated compounds series
Method: The Bernfeld’s procedure was used to investigate in-vitro amylase inhibition. […] Ten minutes after incubation period, […] of 1% starch solution were applied to initiate the reaction and then incubated for 30 minutes at 37 °C. Then 20 μl of 1 M HCl and 75 μl of iodine solution were added to the 96 well plate, the absorbance of the solution was measured at 580 nm and inhibitory response of the -amylase enzyme was calculated using the following formula. Inhibition%=100control-test/control
(§1) The IC50s were determined using the same approach in free radical assays such as DPPH, ABTS, and H2O2.

α-glucosidase = α-glucosidase (Saccharomyces cerevisiae, UniProt P53341); assay type: biochemical
α-glucosidase, sequence (P53341 whole entry): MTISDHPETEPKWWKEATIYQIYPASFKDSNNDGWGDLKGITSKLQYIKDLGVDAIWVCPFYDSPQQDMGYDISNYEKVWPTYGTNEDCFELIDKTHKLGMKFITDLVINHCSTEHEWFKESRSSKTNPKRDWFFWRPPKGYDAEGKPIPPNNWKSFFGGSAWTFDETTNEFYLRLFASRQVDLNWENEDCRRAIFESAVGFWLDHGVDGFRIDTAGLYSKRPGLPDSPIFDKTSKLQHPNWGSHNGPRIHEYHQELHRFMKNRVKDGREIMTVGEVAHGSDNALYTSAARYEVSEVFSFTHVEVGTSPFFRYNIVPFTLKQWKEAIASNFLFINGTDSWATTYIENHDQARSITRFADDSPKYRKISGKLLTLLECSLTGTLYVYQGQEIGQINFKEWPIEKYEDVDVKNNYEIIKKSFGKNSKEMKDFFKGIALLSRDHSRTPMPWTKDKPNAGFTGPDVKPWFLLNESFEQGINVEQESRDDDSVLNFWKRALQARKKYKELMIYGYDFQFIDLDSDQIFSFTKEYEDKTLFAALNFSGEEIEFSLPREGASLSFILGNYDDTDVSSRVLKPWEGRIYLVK
Method: For the example planning initial 1200 μL of phosphate buffer put in test tube and included 100 μl of each concentrate which sequential weakened going from 9, 7, and 5 mg/ml. 200 μl of glycosidase (0.5 mg/11 ml refined H2O) was added to the test tube in addition to 0.2 ml of substrate arrangement (glucopyranoside 15 mg/10 ml refined water) was kept at 37 °C for 20 minutes.
For control, 1.2 ml of PO4 (phosphate buffer) was added to the test tube and furthermore included 200 μl catalyst arrangement and 200 μl of substrate arrangement (C7H14O6 (glucopyranoside) 15 mg/10 ml refined water) just as included 800 μl of Na2CO3 arrangement and was maintained for 20 minutes at 37 °C [32]. The retention of control and test was examined at 4.05e-7 m using the accompanying equation after the recommended time: %Inhibition=absorbanceofControl-absorbanceofSample/absorbanceofControl×100
as §1

[1] = H2O2 free radicals scavenging assay; assay type: biochemical
Method: The hydrogen peroxide antioxidant activity of test samples was evaluated by using protocol described. […] It was […] 0.6 mL hydrogen peroxide solution was applied to it. The absorbance of each plant sample was measured at 230 nm against the blank after 10 minutes. […] Hydrogenperoxidescavengingactivity=1-[…]×100 […]

[2] = ABTS free radicals scavenging assay; assay type: biochemical
Method: The ABTS analysis of plant’s samples was performed by standard systems. […] After amassing of the two solutions, they were saved in a hatchery at 30 °C for 15 m. The absorbance of the subsequent solution was estimated at 745 nm with photo-spectrometer again. Various weakening of ascorbic corrosive was then set up as certain controls as per a similar technique. The ABTS free extreme screening was examined by the accompanying recipe. Formula: %scavengingactivity=A-B/AX100 A used for the control while B represents sample absorbance.

DPPH antioxidant assay = assay type: biochemical; conditions: for DPPH Percent Scavenging / Percent Inhibition (mean ± SEM): semi-purified fractions/isolated compounds series
Method: For DPPH stock arrangement, […] dissolve in 100 ml of methanol and maintain at 20 °C for supplementary action. After this, 1000 micro litter was the standard absorbance set at 517 nm as utilized a control and afterward spread through aluminum foil for keeping in dark area for 1 day for the formation of radicals. […] The 2 ml solution of the examples were blended in with 2 ml of 2, 2-[…]-1-picryl-hydrazyl radical arrangement and saved for 15 m in obscurity zone. Following equation was utilized for the assurance of % DPPH restraint. %inhibition=A-B/A×100
A for absorbance of control and B are denoted for the absorbance of sample.
as §1

albino mice = experiment: Oral glucose tolerance test (OGTT); assay type: in vivo; conditions: for OGTT 0 minutes / OGTT 30 minutes / OGTT 60 minutes / OGTT 120 minutes: oral; for OGTT 0 minutes: 0 minutes after glucose; for OGTT 30 minutes: 30 minutes after glucose; for OGTT 60 minutes: 60 minutes after glucose; for OGTT 120 minutes: 120 minutes after glucose
Method: In this experiment, the animals treated with control and treated groups were fasted overnight. To the albino mice, […] of glucose was administered against the standard glibenclamide. After the oral administration of glucose, the level of glucose in blood was checked at time intervals of 0, 30, 60 and 120 minutes for assessment of the effect of exogenously administered glucose-D on the treated albino mice. After the experiment, the OGTT was carried out for 5 days.

[3] = tested on: alloxan-induced diabetic albino mice; experiment: In-vivo anti-diabetic study in alloxan-induced diabetic mice; conditions: for Decrease in Blood Glucose: 0 day to 15th day
Method: The diabetes was induced in mice by giving alloxan i.p. as per the standard protocols. A single dose of alloxan (150 mg/kg) was given to mice and were kept on fasting for next 16 hours to induce diabetes. […] The animals with random blood glucose level of more than 200 mg/dl were selected for further studies. The animals with elevated blood glucose levels were divided into six groups having five albino mice in each group. Group I was given normal saline and was negative control. Group II was given Tween 80. Group III was the positive control and was given glibenclamide. The remaining groups were given different doses of the compounds. […]

[4] = dose 31.25 μg/kg, diabetic mice
[5] = dose 0.5 (μg/kg), diabetic mice

| Structure (SMILES) | Alpha amylase Percent Inhibition (mean ± SEM) (α-amylase; 250 μg/ml) | Alpha amylase Percent Inhibition (mean ± SEM) (α-amylase; 500 μg/ml) | Alpha amylase Percent Inhibition (mean ± SEM) (α-amylase; 1000 μg/ml) | DPPH Percent Scavenging / Percent Inhibition (mean ± SEM) (DPPH antioxidant assay; 250 μg/ml) [%] | DPPH Percent Scavenging / Percent Inhibition (mean ± SEM) (DPPH antioxidant assay; 500 μg/ml) [%] | DPPH Percent Scavenging / Percent Inhibition (mean ± SEM) (DPPH antioxidant assay; 1000 μg/ml) [%] | OGTT 0 minutes (albino mice) [mg/dL] | OGTT 30 minutes (albino mice) [mg/dL] | OGTT 60 minutes (albino mice) [mg/dL] | OGTT 120 minutes (albino mice) [mg/dL] | Decrease in Blood Glucose ([3]; dose 31.25 μg/kg) [mg/dL] | Blood Glucose Level 0 day [3, 4] [mg/dL] | Blood Glucose Level 4th day [3, 4] [mg/dL] | Blood Glucose Level 7th day [3, 4] [mg/dL] | Blood Glucose Level 10th day [3, 4] [mg/dL] | Blood Glucose Level 15th day [3, 4] [mg/dL] | Decrease in Blood Glucose ([3]; dose 250 μg/kg) [mg/dL] | Blood Glucose Level 0 day ([3]; dose 250 μg/kg, diabetic mice) [mg/dL] | Blood Glucose Level 4th day ([3]; dose 250 μg/kg, diabetic mice) [mg/dL] | Blood Glucose Level 7th day ([3]; dose 250 μg/kg, diabetic mice) [mg/dL] | further results |
| --- | --- | --- | --- | --- | --- | --- | --- | --- | --- | --- | --- | --- | --- | --- | --- | --- | --- | --- | --- | --- | --- |
| C[C@H]1O[C@H](O[C@H]2[C@H](O)[C@@H](O)[C@@H](O[C@H]3[C@H](O)[C@@H](O)C(O)O[C@@H]3CO)O[C@@H]2CO)[C@H](O)[C@@H](O)[C@@H]1N[C@H]1C=C(CO)[C@@H](O)[C@H](O)[C@H]1O (stereo partly shown) [Acarbose] | 77.08 ± 1.04% | 82.28 ± 1.94% | 87.49 ± 0.60% | – | – | – | – | – | – | – | – | – | – | – | – | – | – | – | – | – | Percent Inhibition (mean ± SEM) (α-amylase; 250 μg/ml): 70.08 ± 1.04%; Percent Inhibition (mean ± SEM) (α-amylase; 500 μg/ml): 76.28 ± 1.94%; Percent Inhibition (mean ± SEM) (α-amylase; 1000 μg/ml): 87.49 ± 0.60%; Alpha glucosidase Percent Inhibition (mean ± SEM) (α-glucosidase): 89.50 ± 1.00% and 83.00 ± 0.00% and 77.50 ± 0.57% and 73.53 ± 0.55% and 67.63 ± 0.33%; Percent Inhibition (mean ± SEM) (α-glucosidase): 75.50 ± 1.00% and 70.00 ± 0.00% and 64.50 ± 0.57% and 56.53 ± 0.55% and 51.63 ± 0.33% |
| O=C1O[C@H]([C@@H](O)CO)C(O)=C1O [Ascorbic acid] | – | – | – | 83.33 ± 0.88 | 87.84 ± 0.26 | 92.55 ± 0.35 | – | – | – | – | – | – | – | – | – | – | – | – | – | – | H2O2 assay IC50 [1]: 12.63 µg/mL; H2O2 assay Percent Inhibition (mean ± SEM) ([1]; 250 μg/ml): 71.56 ± 0.49%; H2O2 assay Percent Inhibition (mean ± SEM) ([1]; 500 μg/ml): 74.03 ± 0.64%; H2O2 assay Percent Inhibition (mean ± SEM) ([1]; 1000 μg/ml): 82.43 ± 0.52%; ABTS assay IC50 [2]: < 0.1 µg/mL; ABTS assay Percent Inhibition (mean ± SEM) ([2]; 250 μg/ml): 81.00 ± 1.06%; ABTS assay Percent Inhibition (mean ± SEM) ([2]; 500 μg/ml): 86.66 ± 0.66%; ABTS assay Percent Inhibition (mean ± SEM) ([2]; 1000 μg/ml): 87.83 ± 0.29%; DPPH assay Percent Inhibition (mean ± SEM) (DPPH antioxidant assay; 250 μg/ml, crude extract/solvent fractions series): 81.33 ± 0.88%; DPPH assay Percent Inhibition (mean ± SEM) (DPPH antioxidant assay; 500 μg/ml, crude extract/solvent fractions series): 87.84 ± 0.26%; DPPH assay Percent Inhibition (mean ± SEM) (DPPH antioxidant assay; 1000 μg/ml, crude extract/solvent fractions series): 92.55 ± 0.35%; DPPH assay IC50 (DPPH antioxidant assay; crude extract/solvent fractions series): < 0.1 µg/mL |
| COc1cc(/C=C/CO)ccc1O [Comp 1, (E)-4-(3-hydroxyprop-1-en-1-yl)-2-methoxyphenol] | 74.90 ± 0.60^ns % | 79.45 ± 0.90^ns % | 85.23 ± 0.22^ns % | 80.48 ± 0.25 | 85.43 ± 1.39 | 89.24 ± 0.79 | 165.6 | 194.6 | 211.4 | 160.1 | 36 | 415 | 407 | 398 | 381 | 379 | 205 | 420 | 394 | 345 | blood glucose (albino mice; after 120 minutes): 160 mg/dL; Blood Glucose Level 10th day ([3]; dose 250 μg/kg, diabetic mice): 217 mg/dL; Blood Glucose Level 15th day ([3]; dose 250 μg/kg, diabetic mice): 215 mg/dL; Decrease in Blood Glucose ([3]; dose 500 μg/kg): 119 mg/dL; Blood Glucose Level 0 day ([3]; dose 500 μg/kg, diabetic mice): 411 mg/dL; Blood Glucose Level 4th day ([3]; dose 500 μg/kg, diabetic mice): 387 mg/dL; Blood Glucose Level 7th day ([3]; dose 500 μg/kg, diabetic mice): 371 mg/dL; Blood Glucose Level 10th day ([3]; dose 500 μg/kg, diabetic mice): 311 mg/dL; Blood Glucose Level 15th day ([3]; dose 500 μg/kg, diabetic mice): 292 mg/dL |
| C=CCc1cc2c(c(OC)c1OC)OCO2 [Comp 2, 6-allyl-4,5-dimethoxybenzo[d][1,3]dioxole] | 68.33 ± 0.49 % | 74.33 ± 1.20 % | 81.61 ± 1.70 % | 78.36 ± 0.84 | 82.35 ± 0.23 | 87.62 ± 0.58 | 163.5 | 189.4 | 214.6 | 151.6 | 33 | 451 | 447 | 430 | 424 | 418 | 112 | 467 | 462 | 444 | Change in body weight [3, 4]: −6.6 gm; Blood Glucose Level 10th day ([3]; dose 250 μg/kg, diabetic mice): 408 mg/dL; Blood Glucose Level 15th day ([3]; dose 250 μg/kg, diabetic mice): 355 mg/dL; Decrease in Blood Glucose ([3]; dose 500 μg/kg): 201 mg/dL; Blood Glucose Level 0 day ([3]; dose 500 μg/kg, diabetic mice): 457 mg/dL; Blood Glucose Level 4th day ([3]; dose 500 μg/kg, diabetic mice): 403 mg/dL; Blood Glucose Level 7th day ([3]; dose 500 μg/kg, diabetic mice): 362 mg/dL; Blood Glucose Level 10th day ([3]; dose 500 μg/kg, diabetic mice): 304 mg/dL; Blood Glucose Level 15th day ([3]; dose 500 μg/kg, diabetic mice): 256 mg/dL |
| COc1ccc(Cl)cc1C(=O)NCCc1ccc(S(=O)(=O)NC(=O)NC2CCCCC2)cc1 [Glibenclamide, reference compound] | – | – | – | – | – | – | 151.3 | 176.5 | 214.1 | 140.7 | – | – | – | – | – | – | – | – | – | – | Decrease in Blood Glucose ([3]; dose 0.5 (μg/kg)): 274 mg/dL; Blood Glucose Level 0 day [3, 5]: 472 mg/dL; Blood Glucose Level 4th day [3, 5]: 302 mg/dL; Blood Glucose Level 7th day [3, 5]: 256 mg/dL; Blood Glucose Level 10th day [3, 5]: 211 mg/dL; Blood Glucose Level 15th day [3, 5]: 198 mg/dL |
